PMC4315410, “A New PAMPA Model Proposed on the Basis of a Synthetic Phospholipid Membrane” (PLoS ONE, 2015)
Structures can show the parent of a compound that is named as a salt.

Columns and labels:
[1] = PAMPA with synthetic phospholipid membrane, octyl chain (C8); type: in vitro ADME; conditions: for Papp at 16 h: PAMPA, read-out: P e
Experimental: (§1) In PAMPA, a “sandwich” structure was formed by a 96-well microtiter plate and a 96-well filter plate from Millipore (IPVH, 125 μm thick filter, 0.45 μm pore), then wetted with a 4 μl 2% w/v phospholipid compound solution in n-dodecane [27].
(§2) The stock solutions of the drug samples were prepared at 10 mM concentrations in DMSO and stored at 0°C before use. Before being added to a 96-well filter plate, the stock solution was diluted first with buffer to achieve a final sample concentration of 10∼50 μM and to reduce the DMSO concentration below 1% (v/v).
(§3) The PAMPA plate was filled with a 300 μl diluted drug solution to prepare the “donor” wells, and the 96-well filter plate containing a synthetic phospholipid membrane was then placed on the donor wells. The “acceptor” wells were filled with 200 μl of buffer solution and placed on top of the “sandwich”, and the PAMPA instruments were incubated at 25°C in a sealed and saturated humidity container for a specified time. After reaching the permeation time, the PAMPA plate sandwich was separated, and the amount of drugs in both the donor and acceptor compartments were measured by comparing the experimental spectra with the UV spectrum (220∼400 nm) obtained from reference standards.
(§4) The factor S was the fraction of samples remaining in the donor and the acceptor wells at time t.
(§5) In the incubation time assays, the pH was 7.4 in both the donor and acceptor wells. In the pH-gradient assays, the pH of the drug solutions was varied using NaOH-treated universal buffer (pION Inc.) in the donor wells, and the pH in the acceptor solution was pH 7.4 [15]. In addition, the incubation time in the pH-gradient test assays was 16 h.

[2] = PAMPA with synthetic phospholipid membrane, decyl chain (C10); type: in vitro ADME; conditions: for Papp at 16 h: PAMPA, read-out: P e
Experimental: as §1, §2, §3, §4, §5

[3] = PAMPA with synthetic phospholipid membrane, lauryl chain (C12); type: in vitro ADME; conditions: for Papp at 16 h: PAMPA, read-out: P e
Experimental: as §1, §2, §3, §4, §5

[4] = parameters: method as in Chinese Pharmacopoeia, 2005 edition and references 15, 27, 38; conditions: ref Chinese Pharmacopoeia, 2005 edition and references 15, 27, 38; cited from earlier work
[5] = parameters: method as in PMID 11576780, PMID 9691477; conditions: cited from earlier work
[6] = parameters: method as in DrugBank database; conditions: ref DrugBank database; cited from earlier work
[7] = C8, donor pH 4.6, acceptor pH 7.4, 16 h
[8] = C8, donor pH 4.98, acceptor pH 7.4, 16 h
[9] = C8, donor pH 6.57, acceptor pH 7.4, 16 h
[10] = C8, donor pH 8.2, acceptor pH 7.4, 16 h
[11] = C8, donor pH 9.32, acceptor pH 7.4, 16 h
[12] = pH 7.4, C8 membrane, incubation time 16 h, pH 7.4 donor and acceptor, 25°C
[13] = C10, donor pH 4.6, acceptor pH 7.4, 16 h
[14] = C10, donor pH 4.98, acceptor pH 7.4, 16 h
[15] = C10, donor pH 6.57, acceptor pH 7.4, 16 h
[16] = C10, donor pH 8.2, acceptor pH 7.4, 16 h
[17] = C10, donor pH 9.32, acceptor pH 7.4, 16 h
[18] = pH 7.4, C10 membrane, incubation time 16 h, pH 7.4 donor and acceptor, 25°C
[19] = C12, donor pH 4.6, acceptor pH 7.4, 16 h
[20] = C12, donor pH 4.98, acceptor pH 7.4, 16 h
[21] = C12, donor pH 6.57, acceptor pH 7.4, 16 h
[22] = C12, donor pH 8.2, acceptor pH 7.4, 16 h
[23] = C12, donor pH 9.32, acceptor pH 7.4, 16 h
[24] = pH 7.4, C12 membrane, incubation time 16 h, pH 7.4 donor and acceptor, 25°C

Compound | P e [1, 9] | P e [1, 10] | P e [1, 11] | Papp at 16 h [1, 12] | P e [2, 13] | P e [2, 14] | P e [2, 15] | P e [2, 16] | P e [2, 17] | Papp at 16 h [2, 18] | P e [3, 19] | P e [3, 20] | P e [3, 21] | P e [3, 22] | P e [3, 23] | Papp at 16 h [3, 24] | Papp at 16 h [1, 7] | P e [1, 8] | %FA (human fraction absorbed) [5] | Water solubility [6] | also measured
CC1(C)S[C@@H]2[C@H](NC(=O)[C@H](N)c3ccc(O)cc3)C(=O)N2[C@H]1C(=O)O [Amoxicillin] | 2.6 ×10^–7 cm/s | 2.4 ×10^–7 cm/s | 2.2 ×10^–7 cm/s | 4.6 ± 0.4 ×10⁻⁶ cm/s | 1.9 ×10^–7 cm/s | 2.1 ×10^–7 cm/s | 2.5 ×10^–7 cm/s | 2.3 ×10^–7 cm/s | 2.2 ×10^–7 cm/s | 5.3 ± 0.3 ×10⁻⁶ cm/s | 1.9 ×10^–7 cm/s | 2.1 ×10^–7 cm/s | 2.6 ×10^–7 cm/s | 2.3 ×10^–7 cm/s | 2.0 ×10^–7 cm/s | 5.7 ± 0.4 ×10⁻⁶ cm/s | – | 2.1 ×10^–7 cm/s | 93% | – | P e [1, 7]: 1.9 ×10^–7 cm/s; pKa (second value listed) [4]: 7.31; pKa (third value listed) [4]: 9.53
O=C(N[C@H](CO)[C@H](O)c1ccc([N+](=O)[O-])cc1)C(Cl)Cl [Chloroamphenicol] | – | – | – | 8.8 ± 0.2 ×10⁻⁶ cm/s | – | – | – | – | 0.5 ×10^–6 cm/s | 9.8 ± 0.3 ×10⁻⁶ cm/s | – | 4.2 ×10^–6 cm/s | – | 0.7 ×10^–6 cm/s | 0.5 ×10^–6 cm/s | 14.6 ± 0.3 ×10⁻⁶ cm/s | 4.3 ×10⁻⁶ cm/s | 4.2 ×10^–6 cm/s | – | – | Papp at 16 h [1, 9]: 1.7 ×10⁻⁶ cm/s; Papp at 16 h [1, 10]: 0.6 ×10⁻⁶ cm/s; Papp at 16 h [1, 11]: 0.5 ×10⁻⁶ cm/s; Papp at 16 h [2, 13]: 4.2 ×10⁻⁶ cm/s; Papp at 16 h [2, 14]: 4 ×10⁻⁶ cm/s; Papp at 16 h [2, 15]: 1 ×10⁻⁶ cm/s; Papp at 16 h [2, 16]: 0.7 ×10⁻⁶ cm/s; Papp at 16 h [3, 19]: 4.4 ×10⁻⁶ cm/s; Papp at 16 h [3, 21]: 1.5 ×10⁻⁶ cm/s; pKa (first value listed) [4]: 4.3
COCCc1ccc(OCC(O)CNC(C)C)cc1 (stereo not drawn) [Metoprolol Tartrate] | 5.1 ×10^–5 cm/s | 8.0 ×10^–5 cm/s | 8.9 ×10^–5 cm/s | 9.2 ± 0.6 ×10⁻⁶ cm/s | 1.4 ×10^–5 cm/s | 2.5 ×10^–5 cm/s | 5.3 ×10^–5 cm/s | 7.5 ×10^–5 cm/s | 9.3 ×10^–5 cm/s | 10.3 ± 0.5 ×10⁻⁶ cm/s | 1.6 ×10^–5 cm/s | 2.6 ×10^–5 cm/s | 5.0 ×10^–5 cm/s | 8.0 ×10^–5 cm/s | 9.1 ×10^–5 cm/s | 11.7 ± 0.5 ×10⁻⁶ cm/s | – | 2.7 ×10^–5 cm/s | – | 16900 mg | –
CNC(=C[N+](=O)[O-])NCCSCc1ccc(CN(C)C)o1 [Ranitidine] | 3.2 ×10^–7 cm/s | 4.9 ×10^–7 cm/s | – | 1.2 ± 0.1 ×10⁻⁶ cm/s | 1.6 ×10^–7 cm/s | 1.8 ×10^–7 cm/s | 3.1 ×10^–7 cm/s | 5.8 ×10^–7 cm/s | 5.5 ×10^–7 cm/s | 1.4 ± 0.1 ×10⁻⁶ cm/s | 1.6 ×10^–7 cm/s | 1.8 ×10^–7 cm/s | 3.2 ×10^–7 cm/s | 4.9 ×10^–7 cm/s | 5.4 ×10^–7 cm/s | 1.5 ± 0.1 ×10⁻⁶ cm/s | – | 1.8 ×10^–7 cm/s | 55% | 24.7 mg | P e [1, 7]: 1.6 ×10^–7 cm/s

More lines, main results first:

P e [1, 9] | P e [1, 10] | P e [1, 11] | Papp at 16 h [1, 12] | P e [2, 13] | P e [2, 14] | P e [2, 15] | P e [2, 16] | P e [2, 17] | Papp at 16 h [2, 18] | P e [3, 19] | P e [3, 20] | P e [3, 21] | P e [3, 22] | P e [3, 23] | Papp at 16 h [3, 24] | Papp at 16 h [1, 7] | Compound | P e [1, 8] | %FA (human fraction absorbed) [5] | Water solubility [6] | also measured
2.6 ×10^–6 cm/s | 3.2 ×10^–6 cm/s | – | 2.6 ± 0.4 ×10⁻⁶ cm/s | 1.8 ×10^–6 cm/s | – | 2.6 ×10^–6 cm/s | – | – | 2.8 ± 0.3 ×10⁻⁶ cm/s | 1.8 ×10^–6 cm/s | 1.9 ×10^–6 cm/s | – | 3.2 ×10^–6 cm/s | 3.4 ×10^–6 cm/s | 3.2 ± 0.3 ×10⁻⁶ cm/s | 1.8 ×10⁻⁶ cm/s | CN/C(=N/CCSCc1nc[nH]c1C)NC#N [Cimetidine] | – | 85% | 9380 mg | Papp at 16 h [1, 8]: 1.6 ×10⁻⁶ cm/s; Papp at 16 h [1, 11]: 3.7 ×10⁻⁶ cm/s; Papp at 16 h [2, 14]: 1.9 ×10⁻⁶ cm/s; Papp at 16 h [2, 16]: 3.1 ×10⁻⁶ cm/s; Papp at 16 h [2, 17]: 3.4 ×10⁻⁶ cm/s; Papp at 16 h [3, 21]: 2.7 ×10⁻⁶ cm/s; pKa (first value listed) [4]: 7.23
– | – | – | 2.7 ± 0.3 ×10⁻⁶ cm/s | – | 2.2 ×10^–6 cm/s | – | – | – | 2.8 ± 0.2 ×10⁻⁶ cm/s | 1.2 ×10^–6 cm/s | 1.2 ×10^–6 cm/s | – | – | – | 3.2 ± 0.4 ×10⁻⁶ cm/s | 1.1 ×10⁻⁶ cm/s | NC(N)=Nc1nc(CSCCC(N)=NS(N)(=O)=O)cs1 [Famotidine] | – | 40% | 1000 mg | Papp at 16 h [1, 8]: 2.2 ×10⁻⁶ cm/s; Papp at 16 h [1, 9]: 5 ×10⁻⁶ cm/s; Papp at 16 h [1, 11]: 5.1 ×10⁻⁶ cm/s; Papp at 16 h [2, 13]: 1.2 ×10⁻⁶ cm/s; Papp at 16 h [2, 15]: 5.7 ×10⁻⁶ cm/s; Papp at 16 h [2, 17]: 5.5 ×10⁻⁶ cm/s; Papp at 16 h [3, 21]: 6 ×10⁻⁶ cm/s; Papp at 16 h [3, 23]: 6.1 ×10⁻⁶ cm/s; pKa (first value listed) [4]: 7.24; pKa (second value listed) [4]: 11.19
– | – | – | 13.9 ± 0.5 ×10⁻⁶ cm/s | 23.0 ×10^–6 cm/s | – | – | – | 2.6 ×10^–6 cm/s | 14.5 ± 0.5 ×10⁻⁶ cm/s | – | 23.0 ×10^–6 cm/s | – | 1.5 ×10^–6 cm/s | 2.6 ×10^–6 cm/s | 16.7 ± 0.4 ×10⁻⁶ cm/s | 23 ×10⁻⁶ cm/s | CC(C)Cc1ccc(C(C)C(=O)O)cc1 (stereo not drawn) [Ibuprofen] | – | – | 21 mg | Papp at 16 h [1, 8]: 23.5 ×10⁻⁶ cm/s; Papp at 16 h [1, 9]: 8.5 ×10⁻⁶ cm/s; Papp at 16 h [1, 10]: 3 ×10⁻⁶ cm/s; Papp at 16 h [1, 11]: 2.6 ×10⁻⁶ cm/s; Papp at 16 h [2, 14]: 22 ×10⁻⁶ cm/s; Papp at 16 h [2, 15]: 7 ×10⁻⁶ cm/s; Papp at 16 h [2, 16]: 1.5 ×10⁻⁶ cm/s; Papp at 16 h [3, 19]: 22.5 ×10⁻⁶ cm/s; Papp at 16 h [3, 21]: 7.5 ×10⁻⁶ cm/s
3.2 ×10^–7 cm/s | 4.9 ×10^–7 cm/s | 7.4 ×10^–7 cm/s | 2.4 ± 0.4 ×10⁻⁶ cm/s | 1.5 ×10^–7 cm/s | 1.6 ×10^–7 cm/s | 3.2 ×10^–7 cm/s | 5.8 ×10^–7 cm/s | 7.2 ×10^–7 cm/s | 2.9 ± 0.3 ×10⁻⁶ cm/s | 1.6 ×10^–7 cm/s | 1.7 ×10^–7 cm/s | 3.1 ×10^–7 cm/s | 4.9 ×10^–7 cm/s | 7.3 ×10^–7 cm/s | 3.4 ± 0.2 ×10⁻⁶ cm/s | – | CN(C)C(=N)N=C(N)N [Metformin Hydrochloride] | 1.6 ×10^–7 cm/s | – | – | P e [1, 7]: 1.5 ×10^–7 cm/s
– | 2.5 ×10^–6 cm/s | 2.2 ×10^–6 cm/s | 0.9 ± 0.1 ×10⁻⁶ cm/s | 1.9 ×10^–6 cm/s | – | – | 2.5 ×10^–6 cm/s | 2.3 ×10^–6 cm/s | 1 ± 0.1 ×10⁻⁶ cm/s | – | 2.2 ×10^–6 cm/s | 2.6 ×10^–6 cm/s | 2.6 ×10^–6 cm/s | 2.2 ×10^–6 cm/s | – | 1.9 ×10⁻⁶ cm/s | CCn1cc(C(=O)O)c(=O)c2cc(F)c(N3CCNCC3)cc21 [Norfloxacin] | – | – | 178000 mg | Papp at 16 h [1, 8]: 2.3 ×10⁻⁶ cm/s; Papp at 16 h [1, 9]: 2.6 ×10⁻⁶ cm/s; Papp at 16 h [2, 14]: 2.2 ×10⁻⁶ cm/s; Papp at 16 h [2, 15]: 2.5 ×10⁻⁶ cm/s; P e ([3]; C12 membrane, incubation time 16 h, pH 7.4 donor and acceptor, 25°C): 1.0±0.1 10^−6 cm/s; Papp at 16 h [3, 19]: 1.8 ×10⁻⁶ cm/s; pKa (first value listed) [4]: 6.26
